We go through two compounds from patent publication EP1743636A1, “Combination of a substituted pyrazoline compound and a drug used in food-related disorders” (LABORATORIOS DEL DR. ESTEVE, S.A., priority 2005, dated 2007).

pKi: −log10 of the molar value. Like-named read-outs stand apart in the source and are kept apart here. A value given as a limit tells only on which side of the number the result lay.

Test [1] addresses T1, transfected human CB1 receptors (Homo sapiens, UniProt P21554).
T1 construct: purchased Receptor Biology, Inc
Nature of the test: In-vitro determination of affinity to CB1 receptor (radioligand [3H]-CP55940). Type of test: binding. To be noted: for inhibition at 1 µM: read-out: CB1-Receptor % Inhibition 10^-6 M. As for the experimental part:
(§1) The in-vitro determination of the affinity of the substituted pyrazoline compounds to CB1/CB2-Rezeptors is carried out as described in the publication of Ruth A. Ross, Heather C. Brockie et al., "Agonist-inverse agonist characterization at CB1 and CB2 cannabinoid receptors of L-759633, L759656 and AM630", British Journal of Pharmacology, 126, 665-672, (1999), whereby the transfected human CB1 and CB2 receptors of Receptor Biology, Inc. are used. The radioligand used for both receptors is [^3H]-CP55940. The respective parts of the description is hereby incorporated by reference and forms part of the present disclosure. The affinity of the inventive substituted pyrazoline compounds to CB1/CB2 receptors was determined as described above.

Test [2] deals with T2, transfected human CB2 receptors (Homo sapiens, UniProt P34972).
T2 construct: purchased Receptor Biology, Inc
T2 sequence (P34972 whole entry): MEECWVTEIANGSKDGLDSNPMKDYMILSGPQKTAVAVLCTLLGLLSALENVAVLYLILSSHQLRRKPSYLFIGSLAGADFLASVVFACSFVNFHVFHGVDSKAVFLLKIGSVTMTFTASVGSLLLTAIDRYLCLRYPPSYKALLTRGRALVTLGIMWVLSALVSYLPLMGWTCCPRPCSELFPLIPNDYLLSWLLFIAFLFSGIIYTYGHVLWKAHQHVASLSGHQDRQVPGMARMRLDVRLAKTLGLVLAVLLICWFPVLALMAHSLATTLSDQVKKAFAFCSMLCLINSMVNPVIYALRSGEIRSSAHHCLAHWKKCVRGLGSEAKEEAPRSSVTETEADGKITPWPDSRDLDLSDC
The experiment in a line: In-vitro determination of affinity to CB2 receptor (radioligand [3H]-CP55940). The class given is binding. To be noted: for pKi: radioligand [3H]-CP55940; for inhibition at 1 µM: read-out: CB2-Receptor % Inhibition 10^-6 M. On the procedure: as §1

In test [3] the test system is Male NMRI mice. The experiment in a line: Mouse tetrad model: hot plate analgesia. To be noted: for Antagonistic Effect A: Hot-Plate test: 5 mg/kg i.v. prior to Win 55212-2 in a dose of 1,25mg/kg i.v.; for Agonistic effect A: Hot-Plate test: 5 mg/kg i.v., measured 15 minutes after injection. The class given is in vivo. The source says: (§2) Substances with affinity for cannabinoid receptors are known to produce a wide range of pharmacological effects. It is also known that intravenous administration of a substance with affinity for cannabinoid receptors in mice produces analgesia , hypothermia, sedation and catalepsy. Individually, none of these effects can be considered as proof that a tested substance has affinity for cannabinoid-receptors, since all of these effects are common for various classes of centrally active agents. However, substances, which show all of these effects, i.e. substances that are active in this so-called tetrad model are considered to have affinity for the cannabinoid receptors. It has further been shown that cannabinoid receptor antagonists are higly effective in blocking the effects of a cannabinoid agonist in the mouse tetrad model.
(§3) The tetrad model is described, for example, in the publication of A. C. Howlett et al, International Union of Pharmacology XXVII. Classification of Cannabinoid Receptors, Pharmacol Rev 54, 161-202, 2002 and David R. Compton et al., "In-vivo Characterization of a Specific Cannabinoid Receptor Antagonist (SR141716A) :Inhibition of Tetrahydrocannbinol- induced Responses and Apparent Agonist Activity", J. Pharmacol. Exp. Ther. 277 , 2, 586-594, 1996. The corresponding parts of the description are hereby incorporated by reference. […]
(§4) Before testing in the behavioral procedures given below, mice are acclimatized to the experimental setting. Pre-Treatment control values are determined for analgesia hot plate latency (in seconds), rectal temperature, sedation and catalepsy.
(§5) In order to determine the agonistic activty of the substance to be tested, the mice are injected intravenously with the substance to be tested or the vehicle alone. 15 minutes after injection, latency in hot plate analgesia is measured. Rectal temperature, sedation and catalepsy are measured 20 minutes after injection.
(§6) In order to determine the antagonistic activity the identical procedure is used as for the determination of the agonistic effects, but with the difference that the substance to be evaluated for its antagonistic activity is injectected 5 minutes before the intravenous injection of 1.25 mg/kg Win-55,212 a known cannabinoid-receptor agonist.
The hot plate analgesia is determined according to the method described in Woolfe D. et al. "The evaluation of analgesic action of pethidine hydrochloride (Demerol)", J. Pharmacol. Exp. Ther. 80, 300-307,1944. […]
The mice are placed on a hot plate (Harvard Analgesimeter) at 55 ± 0.5 °C until they show a painful sensation by licking their paws or jumping and the time for these sensations to occur is recorded. This reading is considered the basal value (B). […]
(§7) The determinination of cannabinoid activity in-vivo was determined as described above. […]
A general note: Thermal pain tests record how soon the animal reacts.

For test [4], the system named is Male NMRI mice. Nature of the test: Mouse tetrad model: hypothermia. The class given is in vivo. The settings on record: for Antagonistic Effect B: Hypothermia: 5 mg/kg i.v. prior to Win 55212-2 in a dose of 1,25mg/kg i.v.; for Agonistic effect B: Hypothermia: 5 mg/kg i.v., measured 20 minutes after injection.
Description: as §2, §3, §4, §5, §6
Hypothermia is determined according to the method described in David R. Compton et al. "In-vivo Characterization of a Specific Cannabinoid Receptor Antagonist (SR141716A) Inhibition of Tetrahydrocannbinol- induced Responses and Apparent Agonist Activity", J. Pharmacol Exp Ther. 277 , 2, 586-594, 1996. […]
The base-line rectal temperatures are determined with a thermometer (Yello Springs Instruments Co., Panlabs) and a thermistor probe inserted to 25mm before the administration of the substance to be tested. […]

Test [5] deals with Male NMRI mice. The experiment in a line: Mouse tetrad model: catalepsy. To be noted: for Antagonistic Effect C: Catalepsy: 5 mg/kg i.v. prior to Win 55212-2 in a dose of 1,25mg/kg i.v.; for Agonistic effect C: Catalepsy: 5 mg/kg i.v., measured 20 minutes after injection. The class given is in vivo.
Description: as §2, §3, §4, §5, §6
Catalepsy is determined according to the method described in Alpermann H. G. et al. "Pharmacological effets of Hoe 249: A new potential antidepressant", Drugs Dev. […]
The cataleptic effect of the substance to be tested is evaluated according to the duration of catalepsy, whereby the animals are placed head downwards with their kinlegs upon the top of the wooden block. […]
The percentage of catalepsy is determined according ot the following formula: %Catalepsy = arithmetic mean/6 × 100 [formula] […]

For test [6], the system named is Male NMRI mice. Nature of the test: Mouse tetrad model: sedation and ataxia. Type of test: in vivo. To be noted: for Antagonistic Effect D: Sedation: 5 mg/kg i.v. prior to Win 55212-2 in a dose of 1,25mg/kg i.v.; for Agonistic effect D: Sedation: 5 mg/kg i.v., measured 20 minutes after injection.
Description: as §2
The tetrad model is described, for example, in the publication of A. C. Howlett et al, International Union of Pharmacology XXVII. Classification of Cannabinoid Receptors, Pharmacol Rev 54, 161-202, 2002 and David R. Compton et al., "In-vivo Characterization of a Specific Cannabinoid Receptor Antagonist (SR141716A) :Inhibition of Tetrahydrocannbinol- induced Responses and Apparent Agonist Activity", J. Pharmacol. Exp. Ther. 277 , 2, 586-594, 1996. The corresponding parts of the description are hereby incorporated by reference.
Male NMRI mice with a weight of 20-30 g (Harlan, Barcelona, Spain) are used in all of the following experiments.
as §4, §5, §6
Sedation and ataxia is determined according to the method described in Desmet L. K. C. et al. "Anticonvulsive properties of Cinarizine and Flunarizine in Rats and Mice", Arzneim. -Forsch. (Frug Res) 25, 9, 1975. […]
The percentage of sedation is determined according to the formula: %of sedation = arithmetic mean/3 × 100 [formula]
as §7

T1 sequence (P21554 whole entry): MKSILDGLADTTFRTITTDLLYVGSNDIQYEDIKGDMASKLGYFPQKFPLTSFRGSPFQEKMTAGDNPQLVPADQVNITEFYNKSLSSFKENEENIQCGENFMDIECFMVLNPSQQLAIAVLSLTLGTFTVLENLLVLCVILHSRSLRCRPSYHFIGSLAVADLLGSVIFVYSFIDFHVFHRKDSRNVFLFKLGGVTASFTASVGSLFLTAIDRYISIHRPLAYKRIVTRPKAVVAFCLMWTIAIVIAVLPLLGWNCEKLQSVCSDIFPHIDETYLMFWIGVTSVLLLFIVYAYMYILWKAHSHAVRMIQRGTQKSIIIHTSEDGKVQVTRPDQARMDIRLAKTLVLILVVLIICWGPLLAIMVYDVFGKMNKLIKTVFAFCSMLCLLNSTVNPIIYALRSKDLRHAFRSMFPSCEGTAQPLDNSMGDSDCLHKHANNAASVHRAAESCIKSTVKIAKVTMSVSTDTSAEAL

Turning to `O=C(C1=NN(c2ccc(Cl)cc2Cl)C(c2ccc(Cl)cc2)C1)N1CCCCC1` (stereo not drawn) [Example 5, [5-(4-Chloro-phenyl)-1-(2,4-dichloro-phenyl)-4,5-dihydro-1H-pyrazol-3-yl]-piperidin-1-yl-methanone], the pKi in test [1] (radioligand [3H]-CP55940, read-out: CB1-Receptor Ki) is 6.95. In addition, in test [1], the inhibition at 1 µM was found to be 79%. Further, in test [2], the pKi is roughly 6.00 and the inhibition at 1 µM amounted to 54%. In the test with Male NMRI mice [3], the “Antagonistic Effect A: Hot-Plate test” value came to 50 and the “Agonistic effect A: Hot-Plate test” value amounted to 0. Also, in the test on Male NMRI mice [4], the “Antagonistic Effect B: Hypothermia” value is on record as 40 and the “Agonistic effect B: Hypothermia” value was 50. For the same compound, in the test with Male NMRI mice [5], the “Antagonistic Effect C: Catalepsy” value amounted to 20 and the “Agonistic effect C: Catalepsy” value is listed as 0. For the same compound, in the test on Male NMRI mice [6], the “Antagonistic Effect D: Sedation” value was 20 and the “Agonistic effect D: Sedation” value is 0.

`O=C(NN1CCCCC1)C1=NN(c2ccc(Cl)cc2Cl)C(c2ccc(Cl)cc2)C1` (stereo not drawn) [Example 1, N-piperidinyl-5-(4-chlorophenyl)-1-(2,4-dichlorophenyl)-4,5-dihydro-1H-pyrazole-3-carboxamide]: in test [1], the pKi was greater than 7.60 and the inhibition at 1 µM is 93%. Besides, in test [2], the pKi is less than 6.00 and the inhibition at 1 µM is 33%. Further, in the test on Male NMRI mice [3], the “Antagonistic Effect A: Hot-Plate test” value stood at 74 and the “Agonistic effect A: Hot-Plate test” value is listed as 0. Besides, in the test on Male NMRI mice [4], the “Antagonistic Effect B: Hypothermia” value was 100 and the “Agonistic effect B: Hypothermia” value was found to be 0. In the test with Male NMRI mice [5], the “Antagonistic Effect C: Catalepsy” value worked out at 100 and the “Agonistic effect C: Catalepsy” value is 0. In the test on Male NMRI mice [6], the “Antagonistic Effect D: Sedation” value is listed as 100 and the “Agonistic effect D: Sedation” value worked out at 0.

As usually defined, the pKi is the negative decadic logarithm of the Ki, by convention in mol/L. As a reminder, the inhibition is the drop in the measured response relative to a control, in per cent.
